# Measured values: patent publication US20100286150A1, “LEVOSIMENDAN FOR USE IN TREATING CHRONIC VALVULAR DISEASE” (priority 2008, published 2010)
# Test system: dogs diagnosed with chronic valvular disease (CVD)
# Assay: Double-blind placebo-controlled study of long-term efficacy, safety and survival in dogs with chronic valvular disease
# Format: in vivo
# Conditions: for Owner-reported symptom score (mean ± SD): score 0 (best) to 18 (worst), 0.05 mg/kg orally twice a day
# Protocol: A double-blind placebo-controlled study was conducted for evaluating the long-term efficacy and safety of levosimendan and its effect on long-term survival in dogs diagnosed with chronic valvular disease (CVD). Dogs were randomised to receive either 0.05 mg/kg of levosimendan (n=40) or placebo (n=40) orally twice a day for 5 months. All dogs were allowed to receive their background therapy (ACE-inhibitors, diuretics, beta-blockers and/or digoxin). Quality of life, symptoms of CVD, safety and mortality assessment were conducted throughout the study.
# Improvement in quality of life was determined by using a composite owner-reported symptom score (ORSS). ORSS is a composite variable that was calculated by summing scores for appetite, intolerance to exercise, daytime cough, nocturnal cough, and nocturnal restlessness. The owner-reported symptom score could range from 0 (best possible) to 18 (worst possible).
# [1] = 0.05 mg/kg orally twice a day for 5 months, added to standard therapy, vs placebo, FIG. 1
smiles,measurement,setting,value
"C[C@@H]1CC(=O)NN=C1c1ccc(NN=C(C#N)C#N)cc1 [levosimendan, (−)-enantiomer of [[4-(1,4,5,6-tetrahydro-4-methyl-6-oxo-3-pyridazinyl)phenyl]hydrazono]propanedinitrile]",safety,0.05 mg/kg orally twice a day for 5 months in dogs with CVD,No significant safety concerns
same,mortality,[1],significantly reduced mortality
same,survival,[1],prolonged survival
same,quality of life over time compared to baseline assessments (0 months),"owner-reported symptom score, 0.05 mg/kg orally twice a day for 5 months",significantly improved
same,Owner-reported symptom score (mean ± SD),time 0 months (baseline),5.6 ± 2.4
same,Owner-reported symptom score (mean ± SD),time 1 month,4.1 ± 3.2
same,Owner-reported symptom score (mean ± SD),time 3 months,4.4 ± 4.1
same,Owner-reported symptom score (mean ± SD),time 5 months,4.4 ± 3.4
